Data taken from ChEMBL document CHEMBL3351988, “Synthesis and biological evaluation of novel 6-chloro-quinazolin derivatives as potential antitumor agents” (Eur J Med Chem, 2014).
Structures can show the parent of a compound that is named as a salt. Calls of active or inactive are those of the source. No cut-off for these calls is given here.

What was measured:
MGC-803 [1] = assay: Growth inhibition of human MGC803 cells at 10 uM after 72 hrs by MTT assay; assay type: functional; details: MGC-803, 72 h, read-out: GI
Bcap37 [2] = assay: Growth inhibition of human Bcap37 cells at 10 uM after 72 hrs by MTT assay; assay type: functional; details: Bcap37, 72 h, read-out: GI
[3] = Growth inhibition of human PC3 cells at 10 uM after 72 hrs by MTT assay; assay type: functional; details: PC-3, 72 h, read-out: GI
MGC-803 [4] = assay: Growth inhibition of human MGC803 cells after 72 hrs by MTT assay; assay type: functional, cell-based; details: MGC-803, 72 h
Bcap37 [5] = assay: Growth inhibition of human Bcap37 cells after 72 hrs by MTT assay; assay type: functional, cell-based; details: Bcap37, 72 h
[6] = Growth inhibition of human PC3 cells after 72 hrs by MTT assay; assay type: functional, cell-based; details: PC-3, 72 h
Bcap37 [7] = assay: Induction of apoptosis in human Bcap37 cells assessed as cell volume reduction at 1 to 10 uM after 12 hrs by AO/EB staining based fluorescence microscopy; assay type: functional
MGC-803 [8] = assay: Induction of apoptosis in human MGC803 cells assessed as cell volume reduction at 1 to 10 uM after 12 hrs by AO/EB staining based fluorescence microscopy; assay type: functional
Bcap37 [9] = assay: Induction of apoptosis in human Bcap37 cells assessed as chromatin condensation at 1 to 10 uM after 12 hrs by AO/EB staining based fluorescence microscopy; assay type: functional, cell-based
MGC-803 [10] = assay: Induction of apoptosis in human MGC803 cells assessed as chromatin condensation at 1 to 10 uM after 12 hrs by AO/EB staining based fluorescence microscopy; assay type: functional, cell-based
Bcap37 [11] = assay: Induction of apoptosis in human Bcap37 cells assessed as nuclear fragmentation at 1 to 10 uM after 12 hrs by AO/EB staining based fluorescence microscopy; assay type: functional, cell-based
MGC-803 [12] = assay: Induction of apoptosis in human MGC803 cells assessed as nuclear fragmentation at 1 to 10 uM after 12 hrs by AO/EB staining based fluorescence microscopy; assay type: functional, cell-based
MGC-803 [13] = assay: Induction of apoptosis in human MGC803 cells assessed as condensed chromatin at 1 to 10 uM after 12 hrs by Hoechst 33258 staining based fluorescence microscopy; assay type: functional, cell-based
Bcap37 [14] = assay: Induction of apoptosis in human Bcap37 cells assessed as condensed chromatin at 1 to 10 uM after 12 hrs by Hoechst 33258 staining based fluorescence microscopy; assay type: functional, cell-based
Bcap37 [15] = assay: Induction of apoptosis in human Bcap37 cells assessed as DNA fragmentation at 10 uM after 12 hrs by TUNEL assay; assay type: functional, cell-based
MGC-803 [16] = assay: Induction of apoptosis in human MGC803 cells assessed as DNA fragmentation at 10 uM after 12 hrs by TUNEL assay; assay type: functional, cell-based
MGC-803 [17] = assay: Induction of apoptosis in human MGC803 cells at 1 uM after 6 hrs by Annexin V-FITC staining based flow cytometry; assay type: functional
MGC-803 [18] = assay: Induction of apoptosis in human MGC803 cells at 5 uM after 6 hrs by Annexin V-FITC staining based flow cytometry; assay type: functional
MGC-803 [19] = assay: Induction of apoptosis in human MGC803 cells at 10 uM after 6 hrs by Annexin V-FITC staining based flow cytometry; assay type: functional
MGC-803 [20] = assay: Induction of apoptosis in human MGC803 cells at 1 uM after 12 hrs by Annexin V-FITC staining based flow cytometry; assay type: functional
MGC-803 [21] = assay: Induction of apoptosis in human MGC803 cells at 5 uM after 12 hrs by Annexin V-FITC staining based flow cytometry; assay type: functional
MGC-803 [22] = assay: Induction of apoptosis in human MGC803 cells at 10 uM after 12 hrs by Annexin V-FITC staining based flow cytometry; assay type: functional
MGC-803 [23] = assay: Induction of apoptosis in human MGC803 cells at 1 uM after 24 hrs by Annexin V-FITC staining based flow cytometry; assay type: functional
MGC-803 [24] = assay: Induction of apoptosis in human MGC803 cells at 5 uM after 24 hrs by Annexin V-FITC staining based flow cytometry; assay type: functional
MGC-803 [25] = assay: Induction of apoptosis in human MGC803 cells at 10 uM after 24 hrs by Annexin V-FITC staining based flow cytometry; assay type: functional
MGC-803 [26] = assay: Induction of apoptosis in human MGC803 cells assessed as early apoptotic cell level at 10 uM after 12 hrs by AO/EB staining based fluorescence microscopy; assay type: functional
MGC-803 [27] = assay: Induction of apoptosis in human MGC803 cells assessed as late apoptotic cell level at 10 uM after 12 hrs by AO/EB staining based fluorescence microscopy; assay type: functional
Bcap37 [28] = assay: Induction of apoptosis in human Bcap37 cells assessed as early apoptotic cell level at 10 uM after 12 hrs by AO/EB staining based fluorescence microscopy; assay type: functional
Bcap37 [29] = assay: Induction of apoptosis in human Bcap37 cells assessed as late apoptotic cell level at 10 uM after 12 hrs by AO/EB staining based fluorescence microscopy; assay type: functional
MGC-803 [30] = assay: Induction of apoptosis in human MGC803 cells assessed as condensed chromatin at 10 uM after 12 hrs by Hoechst 33258 staining based fluorescence microscopy; assay type: functional, cell-based
Bcap37 [31] = assay: Induction of apoptosis in human Bcap37 cells assessed as condensed chromatin at 10 uM after 12 hrs by Hoechst 33258 staining based fluorescence microscopy; assay type: functional, cell-based

Row | Compound | inhibition of growth at 10 µM (MGC-803 [1]) | inhibition of growth at 10 µM (Bcap37 [2]) | inhibition of growth at 10 µM [3] | IC50 (MGC-803 [4]) | IC50 (Bcap37 [5]) | IC50 [6] | other results
1 | O=C(/C=C/c1ccc(Oc2ncnc3ccc(Cl)cc23)cc1)/C=C/c1ccc(Cl)c(Cl)c1 | 50.5% | 34.5% | 33.5% | 16.9 µM | 27.9 µM | 18.8 µM | 
2 | COc1cccc2c1C(=O)c1c(O)c3c(c(O)c1C2=O)C[C@@](O)(C(=O)CO)C[C@@H]3O[C@H]1C[C@H](N)[C@H](O)[C@H](C)O1 [DOXORUBICIN HYDROCHLORIDE] | 95.8% | 96.2% | 93.5% | 0.71 µM | 0.94 µM | 0.8 µM | 
3 | O=C(/C=C/c1ccc(Cl)c([N+](=O)[O-])c1)/C=C/c1ccccc1Oc1ncnc2ccc(Cl)cc12 | 70.2% | 52.5% | 62.5% | 5.32 µM | 12.3 µM | 9.76 µM | 
4 | O=C(/C=C/c1ccc(Oc2ncnc3ccc(Cl)cc23)cc1)/C=C/c1cccc(Cl)c1Cl | 68.5% | 61.7% | 67.4% | 7.3 µM | 14.3 µM | 10.2 µM | 
5 | O=C(/C=C/c1ccccc1Oc1ncnc2ccc(Cl)cc12)/C=C/c1cccc(Cl)c1Cl | 76.5% | 70.2% | 73.8% | 5.21 µM | 11.5 µM | 8.35 µM | 
6 | O=C(/C=C/c1ccc(Oc2ncnc3ccc(Cl)cc23)cc1)/C=C/c1cc([N+](=O)[O-])ccc1Cl | 86.7% | 72.5% | 76.8% | 2.15 µM | 9.84 µM | 3.15 µM | Activity (Bcap37 [7]): Active; Activity (MGC-803 [8]): Active; Activity (Bcap37 [9]): Active; Activity (MGC-803 [10]): Active; Activity (Bcap37 [11]): Active; Activity (MGC-803 [12]): Active; Activity (MGC-803 [13]): Active; Activity (Bcap37 [14]): Active; Activity (Bcap37 [15]): Active; Activity (MGC-803 [16]): Active; Activity (MGC-803 [17]): 1.2%; Activity (MGC-803 [18]): 1.7%; Activity (MGC-803 [19]): 4.2%; Activity (MGC-803 [20]): 1.8%; Activity (MGC-803 [21]): 5.6%; Activity (MGC-803 [22]): 8.9%; Activity (MGC-803 [23]): 4.3%; Activity (MGC-803 [24]): 9.8%; Activity (MGC-803 [25]): 21.9%
7 | O=C(/C=C/c1ccc(Oc2ncnc3ccc(Cl)cc23)cc1)/C=C/c1ccc(Cl)c([N+](=O)[O-])c1 | 66.2% | 56.3% | 56.3% | 7.19 µM | 16.2 µM | 11.8 µM | 
8 | O=C(/C=C/c1ccc(Oc2ncnc3ccc(Cl)cc23)cc1)/C=C/c1c(Cl)cccc1Cl | 61.7% | 62.5% | 67.5% | 6.77 µM | 13.8 µM | 9.3 µM | 
9 | O=C(/C=C/c1ccc(Cl)c(Cl)c1)/C=C/c1ccccc1Oc1ncnc2ccc(Cl)cc12 | 56.7% | 38.2% | 42.2% | 16.1 µM | 21.2 µM | 18.3 µM | 
10 | O=C(/C=C/c1cc([N+](=O)[O-])ccc1Cl)/C=C/c1ccccc1Oc1ncnc2ccc(Cl)cc12 | 91.6% | 78.4% | 86.9% | 1.96 µM | 8.47 µM | 2.51 µM | Activity (Bcap37 [7]): Active; Activity (MGC-803 [8]): Active; Activity (Bcap37 [9]): Active; Activity (MGC-803 [10]): Active; Activity (Bcap37 [11]): Active; Activity (MGC-803 [12]): Active; Activity (MGC-803 [13]): Active; Activity (Bcap37 [14]): Active; Activity (Bcap37 [15]): Active; Activity (MGC-803 [16]): Active; Activity (MGC-803 [17]): 2%; Activity (MGC-803 [18]): 6.7%; Activity (MGC-803 [19]): 10.3%; Activity (MGC-803 [20]): 3.5%; Activity (MGC-803 [21]): 9.2%; Activity (MGC-803 [22]): 15.7%; Activity (MGC-803 [23]): 5.2%; Activity (MGC-803 [24]): 16.8%; Activity (MGC-803 [25]): 31.7%
11 | CC[C@@]1(O)C(=O)OCc2c1cc1n(c2=O)Cc2cc3cc(O)ccc3nc2-1 [HYDROXYCAMPTOTHECIN] |  |  |  |  |  |  | Activity (MGC-803 [26]): Active; Activity (MGC-803 [27]): Active; Activity (Bcap37 [28]): Active; Activity (Bcap37 [29]): Active; Activity (MGC-803 [30]): Active; Activity (Bcap37 [31]): Active; Activity (Bcap37 [15]): Active; Activity (MGC-803 [16]): Active; Activity (MGC-803 [17]): 1.3%; Activity (MGC-803 [18]): 1.8%; Activity (MGC-803 [19]): 3.5%; Activity (MGC-803 [20]): 2.1%; Activity (MGC-803 [21]): 6%; Activity (MGC-803 [22]): 9.1%; Activity (MGC-803 [23]): 3.8%; Activity (MGC-803 [24]): 7.3%; Activity (MGC-803 [25]): 18.6%
12 | O=C(/C=C/c1ccccc1Oc1ncnc2ccc(Cl)cc12)/C=C/c1c(Cl)cccc1Cl | 69.3% | 67.1% | 70.1% | 5.17 µM | 11.3 µM | 7.98 µM | 
